Results from PMC8698721, “Exploration of the Structure–Function Relationships of a Novel Frog Skin Secretion-Derived Bioactive Peptide, t-DPH1, through Use of Rational Design, Cationicity Enhancement and In Vitro Studies” (Antibiotics, 2021).
In brackets after ≈: the same amount, converted by molar mass. Read-outs that look alike come from different tables or passages of the source. Where a SMILES comes first, the peptide text is derived from it.

Tests used:
[1] = system: Methicillin-resistant Staphylococcus aureus (MRSA) (NCTC 12493); type: cell-based; settings: NCTC 12493, 24 h
Protocol: (§1) To assess the antimicrobial activity of t-DPH1 and its designed analogues, MIC and MBC assays were conducted. Seven microorganism strains were used in the assay: Gram-positive bacteria S. aureus (ATCC 6538), E. faecalis (NCTC 12697) and MRSA (NCTC 12493); Gram-negative bacteria E. coli (ATCC 8739), P. aeruginosa (ATCC 9027) and K. pneumoniae (ATCC 43816); yeast, C. albicans (ATCC 10231).
(§2) For MIC assay, the microorganisms were initially incubated in Mueller-Hinton broth (MHB) (for bacteria) or yeast extract peptone dextrose broth (YPD-B) (for yeast) overnight and sub-cultured to achieve their respective logarithmic growth phases (5 × 10^5 CFU/mL). Then, 99 μL of each microorganism and 1 μL of the tested peptide solution were incubated in a 96-well plate. The final on-plate peptide concentrations were from 1 to 512 μM. Except for the peptide group, four other groups were set when conducting this experiment, including a negative control group (PBS), a vehicle control group (1% DMSO), a positive control group (bacteria: 20 μg/mL norfloxacin; yeast: amphotericin B) and a blank control group (MHB or YPD-B with no microorganism culture). Thus, the MIC value represents the lowest concentration of peptides at which no visible growth of the microorganism after 24 h incubation. For the MBC assay, 10 μL of the medium from each clear well was inoculated onto a Mueller–Hinton agar (MHA) (for bacteria) or yeast extract peptone dextrose agar (YPD-A) (for yeast) plate and incubated for 24 h for measurement MBC values.

[2] = system: Enterococcus faecalis (E. faecalis) (NCTC 12697); type: cell-based; settings: NCTC 12697, 24 h
Protocol: as §1, §2

C. albicans (ATCC 10231) = type: cell-based, Candida albicans; settings: ATCC 10231, 24 h
Protocol: as §1, §2

E. coli (ATCC 8739) = type: cell-based, Escherichia coli; settings: ATCC 8739, 24 h
Protocol: as §1, §2

[3] = system: NCI-H157 (human non-small cell lung cancer cell line); type: cell-based; settings: 24 h
Protocol: (§3) The MTT assay was conducted to verify the proliferation inhibitory effect of t-DPH1 and its analogues. Human cancer cell lines (NCI-H838 (ATCC® CRL-5844, human non-small cell lung cancer)), (NCI-H157(ATCC® CRL-5802, human non-small cell lung cancer cell line)), (U251MG (ECACC 09063001, human neuronal glioblastoma cancer cell line)), (PC-3 (ATCC® CRL-1435TM, human prostate carcinoma cancer cell line)) and normal human cell lines (HMEC-1(ATCC®-CRL-3243, human microvascular endothelial cell line)) and (HaCaT (ATCC®-PCS-200-011, human keratinocyte cell)) were purchased from the American Type Culture Collection (ATCC, Manassas, VA, USA) and the European Collection of Cell Cultures (ECACC, Sallisbury, UK) for this assay. For the MTT assay, 8000 cells/per well were seeded in the 96-well plate for 24 h. Subsequently, experiment groups were dosed with fresh serum-free medium containing different concentrations of peptides (100 μM to 10 nM) in 3 replicates. Negative control groups and positive control groups were dosed with the fresh serum-free medium containing equal amounts of PBS, and 0.1% (w/v) Triton X-100, respectively. Then the 96-well plate was incubated at 37 °C with 5% CO2 for 24 h. After, ten microliters of MTT solution (5 mg/mL) (Sigma-Aldrich UK Ltd., Gillingham, UK) were added to each well and incubated in a dark environment for two hours. Then, the solution in each well was removed and 100 μL of DMSO were added and then the plate was shaken for 10 min on a shaking incubator before detecting the OD value by use of a Synergy HT plate reader (BioTek, Minneapolis, MN, USA) at λ = 570 nm.

[4] = system: PC-3 (human prostate carcinoma cancer cell line); type: cell-based; settings: 24 h
Protocol: as §3

[5] = system: U251MG (human neuronal glioblastoma cancer cell line); type: cell-based; settings: 24 h
Protocol: as §3

[6] = system: HMEC-1 (human microvascular endothelial cell line); type: cell-based; settings: 24 h
Protocol: as §3

[7] = system: NCI-H838 (human non-small cell lung cancer); type: cell-based; settings: 24 h
Protocol: as §3

[8] = system: HaCaT (human keratinocyte cell); type: cell-based; settings: 24 h
Protocol: as §3

[9] = system: K. pneumoniae (ATCC 43816); type: cell-based, Klebsiella pneumoniae; settings: ATCC 43816, 24 h
Protocol: as §1, §2

[10] = system: P. aeruginosa (ATCC 9027); type: cell-based, Pseudomonas aeruginosa; settings: ATCC 9027, 24 h
Protocol: as §1, §2

S. aureus (ATCC 6538) = type: cell-based, Staphylococcus aureus; settings: ATCC 6538, 24 h
Protocol: as §1, §2

horse red blood cells = type: cell-based
Protocol: The haemolysis assay was performed by mixing 2% (v/v) fresh defibrinated horse blood (TCS Biosciences Ltd., Buckingham, UK) with peptides in different concentrations. Before the test, horse blood was rinsed with PBS three to four times until the supernatant was clear. Next, peptide solutions (from 100 μM to 1 nM) were incubated with the suspension of red blood cells at 37 °C for two hours. The blood cells treated with 1% Triton-X 100 were used as the positive control, and the blood cells treated with PBS were used as the negative control. After incubation, 100 μL of the supernatant from each sample were transferred to a new 96-well plate, and the OD value of each well was measured with a Synergy HT plate reader (BioTek, Minneapolis, MN, USA) with the absorbance set to 570 nm.

[11] = system: PC-3, H838, H157 and U251MG cancer cell lines; type: cell-based, human; settings: 24 h
Protocol: as §3, with “Then the 96-well plate was incubated at 37 °C with 5% CO2 for 24 h. After, ten microliters of MTT solution (5 mg/mL) (Sigma-Aldrich UK Ltd., Gillingham, UK) were added to each well and incubated in a dark environment for two hours.” left out

| Compound | MBC [1] [µM] | MIC [1] [µM] | MBC [2] [µM] | MIC [2] [µM] | MBC (C. albicans (ATCC 10231)) [µM] | MIC (C. albicans (ATCC 10231)) [µM] | MBC (E. coli (ATCC 8739)) [µM] | MIC (E. coli (ATCC 8739)) [µM] | IC50 [3] [µM] | IC50 [4] [µM] | IC50 [5] [µM] | IC50 against HMEC-1 [6] [µM] | IC50 [7] [µM] | IC50 against HaCaT [8] [µM] | MBC [9] [µM] | MIC [9] [µM] | MBC [10] [µM] | MIC [10] [µM] | MBC (S. aureus (ATCC 6538)) [µM] | MIC (S. aureus (ATCC 6538)) [µM] | other results |
| --- | --- | --- | --- | --- | --- | --- | --- | --- | --- | --- | --- | --- | --- | --- | --- | --- | --- | --- | --- | --- | --- |
| CC[C@H](C)[C@H](NC(=O)[C@H](CCCCN)NC(=O)[C@H](CCCCN)NC(=O)[C@H](Cc1c[nH]c2ccccc12)NC(=O)[C@H](CC(C)C)NC(=O)CN)C(=O)N[C@@H](CCCCN)C(=O)N[C@@H](CC(N)=O)C(=O)N[C@H](C(=O)N[C@@H](C)C(=O)N[C@@H](C)C(=O)N[C@@H](C)C(=O)N[C@@H](C)C(=O)NCC(=O)N[C@@H](CCCCN)C(=O)N[C@@H](C)C(=O)N[C@@H](C)C(=O)N[C@@H](CC(C)C)C(=O)NCC(=O)N[C@@H](C)C(=O)N[C@@H](CC(C)C)C(N)=O)C(C)C [t-DPH1-K4] (H-GLWKKIKNVAAAAGKAALGAL-NH2) | 4 (≈ 8.2 µg/mL) | 2 (≈ 4.1 µg/mL) | 32 (≈ 65.6 µg/mL) | 32 (≈ 65.6 µg/mL) | 64 (≈ 131 µg/mL) | 32 (≈ 65.6 µg/mL) | 2 (≈ 4.1 µg/mL) | 1 (≈ 2.05 µg/mL) | 6.14 | 19 | 32.2 | 46.02 | 10.1 | 63.37 | 4 (≈ 8.2 µg/mL) | 2 (≈ 4.1 µg/mL) | 16 (≈ 32.8 µg/mL) | 8 (≈ 16.4 µg/mL) | 4 (≈ 8.2 µg/mL) | 2 (≈ 4.1 µg/mL) | HC50 (horse red blood cells; red cells of horse): 444.8 µM |
| CC[C@H](C)[C@H](NC(=O)[C@H](CCCCN)NC(=O)[C@H](CCCCN)NC(=O)[C@H](Cc1c[nH]c2ccccc12)NC(=O)[C@H](CC(C)C)NC(=O)CN)C(=O)N[C@@H](CCCCN)C(=O)N[C@@H](CC(N)=O)C(=O)N[C@H](C(=O)N[C@@H](C)C(=O)N[C@@H](CCCCN)C(=O)N[C@@H](C)C(=O)N[C@@H](C)C(=O)NCC(=O)N[C@@H](CCCCN)C(=O)N[C@@H](C)C(=O)N[C@@H](C)C(=O)N[C@@H](CCCCN)C(=O)NCC(=O)N[C@@H](C)C(=O)N[C@@H](CC(C)C)C(N)=O)C(C)C [t-DPH1-6K] (H-GLWKKIKNVAKAAGKAAKGAL-NH2) | 64 (≈ 136 µg/mL) | 32 (≈ 67.9 µg/mL) | 512 (≈ 1090 µg/mL) | 256 (≈ 543 µg/mL) | 128 (≈ 272 µg/mL) | 64 (≈ 136 µg/mL) | 4 (≈ 8.49 µg/mL) | 2 (≈ 4.25 µg/mL) | 88.3 | 55.6 | 594 | 340.2 | 186 | 151.4 | 8 (≈ 17 µg/mL) | 4 (≈ 8.49 µg/mL) | 16 (≈ 34 µg/mL) | 8 (≈ 17 µg/mL) | 8 (≈ 17 µg/mL) | 4 (≈ 8.49 µg/mL) | HC50 (horse red blood cells; red cells of horse): 834.6 µM |
| CC[C@H](C)[C@H](NC(=O)[C@H](CCCCN)NC(=O)[C@H](CCCCN)NC(=O)[C@H](Cc1c[nH]c2ccccc12)NC(=O)[C@H](CC(C)C)NC(=O)CN)C(=O)N[C@@H](CCCCN)C(=O)N[C@@H](CC(N)=O)C(=O)N[C@H](C(=O)N[C@@H](C)C(=O)N[C@@H](CCCCN)C(=O)N[C@@H](C)C(=O)N[C@@H](C)C(=O)NCC(=O)N[C@@H](CCCCN)C(=O)N[C@@H](C)C(=O)N[C@@H](C)C(=O)N[C@@H](CC(C)C)C(=O)NCC(=O)N[C@@H](C)C(=O)N[C@@H](CC(C)C)C(N)=O)C(C)C [t-DPH1-5K] (H-GLWKKIKNVAKAAGKAALGAL-NH2) | 4 (≈ 8.43 µg/mL) | 2 (≈ 4.22 µg/mL) | 16 (≈ 33.7 µg/mL) | 8 (≈ 16.9 µg/mL) | 512 (≈ 1080 µg/mL) | 256 (≈ 540 µg/mL) | 4 (≈ 8.43 µg/mL) | 2 (≈ 4.22 µg/mL) | 1.55 | 2.6 | 2.68 | 3.897 | 1.8 | 3.332 | 4 (≈ 8.43 µg/mL) | 2 (≈ 4.22 µg/mL) | 8 (≈ 16.9 µg/mL) | 4 (≈ 8.43 µg/mL) | 2 (≈ 4.22 µg/mL) | 2 (≈ 4.22 µg/mL) | haemolysis (horse red blood cells; 10 µM): ~40%; HC50 (horse red blood cells; red cells of horse): 19.39 µM |
| CC[C@H](C)[C@H](NC(=O)[C@H](CCCCN)NC(=O)[C@H](CCCCN)NC(=O)[C@H](Cc1c[nH]c2ccccc12)NC(=O)[C@H](CC(C)C)NC(=O)[C@@H](N)Cc1c[nH]c2ccccc12)C(=O)N[C@@H](CCCCN)C(=O)N[C@@H](CC(N)=O)C(=O)N[C@H](C(=O)N[C@@H](C)C(=O)N[C@@H](CCCCN)C(=O)N[C@@H](C)C(=O)N[C@@H](C)C(=O)NCC(=O)N[C@@H](CCCCN)C(=O)N[C@@H](C)C(=O)N[C@@H](C)C(=O)N[C@@H](CCCCN)C(=O)NCC(=O)N[C@@H](C)C(=O)N[C@@H](CC(C)C)C(N)=O)C(C)C [t-DPH1-6KW] (H-WLWKKIKNVAKAAGKAAKGAL-NH2) | 256 (≈ 576 µg/mL) | 128 (≈ 288 µg/mL) | > 512 | 512 (≈ 1150 µg/mL) | > 512 | 512 (≈ 1150 µg/mL) | 4 (≈ 9.01 µg/mL) | 2 (≈ 4.5 µg/mL) | 427 | 118 | – | 293.2 | 181 | 119.3 | 64 (≈ 144 µg/mL) | 64 (≈ 144 µg/mL) | 128 (≈ 288 µg/mL) | 64 (≈ 144 µg/mL) | 128 (≈ 288 µg/mL) | 128 (≈ 288 µg/mL) | HC50 (horse red blood cells): 2094 µM |
| CC[C@H](C)[C@H](NC(=O)[C@H](CCCCN)NC(=O)[C@H](CO)NC(=O)[C@H](Cc1c[nH]c2ccccc12)NC(=O)[C@H](CC(C)C)NC(=O)CN)C(=O)N[C@@H](CCCCN)C(=O)N[C@@H](CC(N)=O)C(=O)N[C@H](C(=O)N[C@@H](C)C(=O)N[C@@H](C)C(=O)N[C@@H](C)C(=O)N[C@@H](C)C(=O)NCC(=O)N[C@@H](CCCCN)C(=O)N[C@@H](C)C(=O)N[C@@H](C)C(=O)N[C@@H](CC(C)C)C(=O)NCC(=O)N[C@@H](C)C(=O)N[C@@H](CC(C)C)C(N)=O)C(C)C [t-DPH1] (H-GLWSKIKNVAAAAGKAALGAL-NH2) | 32 (≈ 64.3 µg/mL) | 16 (≈ 32.2 µg/mL) | 256 (≈ 514 µg/mL) | 128 (≈ 257 µg/mL) | 128 (≈ 257 µg/mL) | 64 (≈ 129 µg/mL) | 4 (≈ 8.04 µg/mL) | 2 (≈ 4.02 µg/mL) | 10.2 | 14.7 | 34.2 | 29.85 | 23.5 | 175.6 | 16 (≈ 32.2 µg/mL) | 8 (≈ 16.1 µg/mL) | 32 (≈ 64.3 µg/mL) | 16 (≈ 32.2 µg/mL) | 16 (≈ 32.2 µg/mL) | 8 (≈ 16.1 µg/mL) | haemolysis (horse red blood cells; 100 µM): over 50%; HC50 (horse red blood cells; red cells of horse): 106.4 µM; IC50 [11]: 10.2 to 34.2 µM |
